The source of these data is patent US20230212517A1, “METHODS FOR GENERATING HEMATOPOIETIC STEM CELLS” (The Brigham and Women's Hospital, Inc., priority 2018, published 2023).

Assay [1] has as its system cd41:eGFP+ HSCs emerging from flk1:mCherry+ endothelial cells. Nature of the assay: Time-lapse confocal imaging of cd41:eGFP+ HSCs emerging from flk1:mCherry+ endothelial cells in transgenic embryos. It is filed as in vivo, zebrafish. The note with it: 26-42 hpf. The procedure:
Mice were purchased Cd45.2 (C57BL6/J) and Cd45.1 (SJL) from The Jackson Laboratory and zebrafish morpholinos from GeneTools. Microangiography was performed by injecting fluorescent-labeled dextran dye in the atrium of zebrafish heart and its passage was recorded using live imaging. Immunostaining of zebrafish heart and mouse AGM were analyzed using an inverted fluorescent microscope. Cardiac tamponade, heart rate, and pulse frequency were analyzed in zebrafish embryos using bright field imaging or time-lapse confocal microscopy. The movement of red blood cells in blood vessels was analyzed as well as the endothelial-to-HSC transition in zebrafish transgenic embryos using time-lapse confocal imaging.
Zebrafish embryos were treated with the following chemical modulators in E3 fish media: 100 uM L-NAME (Fisher Scientific), 50 uM Digitoxigenin (Sigma), 25-50 uM Yoda1 (Cayman Chemical), 1 uM Nanaomycin (Nana; Fisher Scientific), 100 uM Gadolinium chloride (GdCl3; Sigma), 5-10 uM 4α-phorbol 12, 13-didecanaote (4Apdd; Sigma), or GSK205 (10 uM).
cd41: eGFP were crossed with flk1:mCherry zebrafish and flk1:mCherry with lcr:eGFP zebrafish and injected morpholino in their transgenic embryos. Transgenic embryos were mounted in low-melting-point agarose and a spinning-disk confocal microscope was used to perform time-lapse confocal imaging of cd41:eGFP^+ HSCs emerging from flk1^+ endothelium from 30 to 42 hpf. The relative movement of lcr:eGFP^+ red blood cells was analyzed in the context of flk1:mCherry^+ endothelium. We performed image analysis using IMARIS (Bitplane) software.

Another assay deals with E11.5 AGM cells. In words: Hematopoietic colony formation unit (CFU) and FACS assays on E11.5 AGM cells. Type of assay: cell-based, mouse. The settings on record: substance alone vs. control. The procedure:
(§1) Pulsating blood vessels like conditions were stimulated in vitro using FLEXCELL FX-4000 cell stretching bioreactor machine. To analyze roles of pharmacological targets in regulating the endothelial-to-HSC transition, mouse embryo-derived AGM or whole mouse embryo were exposed ex vivo with biomechanical stretching, chemicals, or drugs. Next, hematopoietic colony formation assays were performed by incubating mouse AGM-derived cells in StemCell M3434 media for seven days. Serial transplantation of AGM-derived HSCs in lethally irradiated SJL mice were performed. The stem cell frequency upon biomechanical stretching was analyzed using a limiting dilution assay. To characterize properties of AGM-HSC-derived blood cells in primary transplants, percentage chimerism and reconstitution was measured using FACS, globin transcripts were analyzed using quantitative reverse transcriptase-PCR, myeloperoxidase amount was measured using PICOKINE ELISA kit, TCR-β rearrangement was analyzed using PCR for TCR-β locus, pre-immune IG detection was analyzed using Thermo-Fisher Mouse Ig Isotyping kit, and delayed-type hypersensitivity was analyzed by injecting sheep RBC (Rockland Immunochemicals) in the footpad of pre-sensitized mice.
E11.5 AGM were harvested from C57BL6/J Cd45.2 mouse embryos, and a single cell suspension of a three-embryo equivalent of cells was seeded on each well of a BioFlex six-well culture plate (FlexCell). We cultured cells overnight with the application of cyclic strain (Flexcell® FX4000™ Tension System) and/or treatment with chemical modulators (25-50 μM Yoda1, 1 μM Nanaomycin, 100 μM GdCl3, 1 uM GsMTx4, 5-20 μM 4αPDD, 10 uM GSK205). Next, harvested cells were used to perform transplant, fluorescence-activated cell sorting (FACS) analysis, and colony-forming unit (CFU) assays.
E11.5 mouse embryos were harvested from the uterus of the time-mated pregnant female, into sterile glass vials containing FBS, 1 mM glucose, 1% Penicillin-Streptomycin, and/or the selected chemical modulator (25-50 μM Yoda1, 1 μM Nanaomycin, 5-20 μM 4αPDD, or 10 uM GSK205). We placed glass vials in the ex vivo incubator (BTC Engineering, Cambridge, UK) consisting of a roller apparatus (rotating ˜30 rpm), constant gas supply (21% O2, 5% CO2, balance N2) and constant temperature at 37° C. After 24 hours, AGM were harvested to analyze the formation of hematopoietic cells by FACS and CFU assays.
For CFU assays, cells from AGM explant or ex vivo were plated in METHOCULT GF M3434 media (StemCell Technologies). Seven days after seeding, we analyzed their capacity to make granulocyte, erythroid, macrophage, megakaryocyte (GEMM), granulocyte macrophage (GM), granulocyte (G), macrophage (M), and erythroid (E) colonies.
AGM cells from explants and ex vivo were stained with Sca1-Pacific-Blue (E13-161.7, Biolegend) and Flk1-APC-Cy7 (Avas 12α1, BD). Blood from transplanted mice was stained with the following antibody cocktail: Cd45.2-Pacific-Blue (104, Biolegend), Cd45.1-FITC (A20, Biolegend), Cd3-PE (145-2C11, Biolegend), Cd8-PE (53-6.7, Biolegend), Mac1-APC (M1/70, Biolegend), Gr1-APC (108412, Biolegend), Cd19-APC-CY7 (6D5, Biolegend), B220-APC-CY7 (RA3-6B2, Biolegend).

Assay [2] has as its system bone marrow-derived Cd71+ Ter119+ sorted (donor) erythroid cells. In words: qRT-PCR of globin transcripts in donor erythroid cells of primary transplant. Type of assay: in vivo, mouse. The note with it: primary transplant of treated E11.5 AGM. The procedure:
as §1
FACS was used to sort erythroid precursors (Cd45.2^+, Ter119^+, Cd71^+) from the unlysed bone marrow isolated from AGM-transplanted mice. […]

The test system of assay [3] is bone marrow-derived Gr1+Mac1+ sorted (donor) neutrophils. Nature of the assay: ELISA quantification of myeloperoxidase (MPO) in donor neutrophils of primary transplant. It is filed as in vivo, mouse. The note with it: overnight culture; primary transplant of treated E11.5 AGM. The procedure: as §1, with “mice. […]” for “mice.”
Background: In an ELISA, binding on a coated surface is turned into a signal by an enzyme label.

Turning to `Clc1cccc(Cl)c1CSc1nnc(-c2cnccn2)s1` [Yoda1, 2-[5-[[(2,6-Dichlorophenyl)methyl]thio]-1,3,4-thiadiazol-2-yl]-pyrazine], the “HSC formation (endothelial-to-HSC transition)” value is recorded as “stimulates HSC formation” in assay [1] (control embryos) and “rescues HSC formation” in assay [1] (sih-MO embryos). In addition, in the assay on E11.5 AGM cells, the “hematopoietic colony formation (endothelial-to-hematopoietic transition)” value was “stimulates the endothelial-to-hematopoietic transition”. Moreover, in assay [2], the “hemoglobin type (β-major adult, εγ and β-H1 embryonic) expressed in donor erythroid cells” value is “reconstitutes to red cells containing adult hemoglobin”. In addition, the “myeloperoxidase (MPO) level of donor neutrophils” value in assay [3] was “reconstitute to functional myeloid cells displaying sufficient MPO levels”.
